# Reference: US20090143279A1 (priority 2007, published 2009)
# Like-named read-outs stand apart in the source and are kept apart here.
# What was measured:
# [1] = test system: nuOXPHOS transcripts; type: cell-based, mouse
# [2] = test system: OXPHOS gene expression; type: cell-based, mouse
# [3] = test system: cellular dehydrogenase activity
# [4] = test system: reactive oxygen species; type: cell-based, mouse
# [5] = test system: mtOXPHOS transcripts; type: cell-based, mouse
# [6] = test system: C2C12 myotubes
# [7] = test system: mitochondrial membrane potential; type: cell-based, mouse
# [8] = test system: cytochrome c; type: cell-based, mouse
# [9] = Conc 20 μM, normalized score vs mock-treated (DMSO) wells
# [10] = composite Z-score vs DMSO, Conc 20 μM
# [11] = 20 μM, composite Z-score vs DMSO
# [12] = composite Z-score vs mock-treated (DMSO) wells, Conc 20 μM
# [13] = normalized composite Z-score vs mock-treated (DMSO) wells, Conc 20 μM
# [14] = composite Z-score vs DMSO wells, Conc 20 μM
structure (smiles),measurement,setting,value
CC(=O)O[C@H]1CC[C@]2(C)C3=CC(=O)[C@]4(C)[C@@H]5[C@H](C[C@H]4[C@@H]3CC[C@H]2C1)O[C@@]1(OCC(C)CC1Br)[C@H]5C (stereo partly drawn),nucOX (composite Z-score),[1]; [9],−0.585
same,GE-HTS (composite Z-score),[2]; [9],−0.560
same,MTT (composite Z-score),[3]; [9],−2.231
same,ROS (composite Z-score),[4]; [9],1.188
same,mitoOX (composite Z-score),[5]; [9],−0.446
same,Viability (composite Z-score),[6]; [9],0.710
same,ΔΨm (composite Z-score),[7]; [9],−0.260
same,cyt c (composite Z-score),[8]; [9],0.565
Cc1onc(-c2ccccc2)c1C(=O)N[C@@H]1C(=O)N2[C@@H]1SC(C)(C)[C@@H]2C(=O)[O-].[Na+] [oxacillin sodium],nucOX,[1]; [10],−0.629
same,GE-HTS,[2]; [10],−0.790
same,MTT,[3]; [10],−1.064
same,ROS,[4]; [10],0.572
same,mitoOX,[5]; [10],−0.881
same,Viability,[6]; [10],−1.101
same,ΔΨm,[7]; [10],−0.432
same,cyt c,[8]; [10],−0.361
CC(=O)Nc1c(I)cc(I)c(C(=O)O)c1I [acetriazoic acid],nucOX,[1]; [10],−0.870
same,GE-HTS,[2]; [10],−0.710
same,MTT,[3]; [10],−0.938
same,ROS,[4]; [10],1.158
same,mitoOX,[5]; [10],−0.320
same,Viability,[6]; [10],0.205
same,ΔΨm,[7]; [10],−0.059
same,cyt c,[8]; [10],−1.416
CC(C)C[C@H]1C(=O)N2CCC[C@H]2[C@]2(O)O[C@](NC(=O)[C@@H]3C=C4c5cccc6[nH]c(Br)c(c56)C[C@H]4N(C)C3)(C(C)C)C(=O)N12 [bromocriptine],nucOX,[1]; [11],0.199
same,GE-HTS,[2]; [11],0.006
same,MTT,[3]; [11],−1.667
same,ROS,[4]; [11],0.176
same,mitoOX,[5]; [11],−0.322
same,Viability,[6]; [11],1.142
same,ΔΨm,[7]; [11],0.037
same,cyt c,[8]; [11],−0.064
CC(C)=CCOc1cc2oc(=O)ccc2cc1O [prenyletin],nucOX,[1]; [12],−0.015
same,GE-HTS,[2]; [12],0.113
same,MTT,[3]; [12],−1.166
same,ROS,[4]; [12],−0.090
same,mitoOX,[5]; [12],0.282
same,Viability,[6]; [12],0.919
same,ΔΨm,[7]; [12],0.772
same,cyt c,[8]; [12],0.150
COc1cc2c(cc1OC)C1(O)C(=O)c3ccc(O)c(C(=O)O)c3OC1CO2 (stereo not drawn),nucOX,[1]; [13],−0.162
same,GE-HTS,[2]; [13],−0.404
same,MTT,[3]; [13],−0.976
same,ROS,[4]; [13],−0.738
same,mitoOX,[5]; [13],−0.773
same,Viability,[6]; [13],0.509
same,ΔΨm,[7]; [13],−0.494
same,cyt c,[8]; [13],0.670
CSCC[C@H](NC=O)C(=O)N[C@@H](CC(C)C)C(=O)N[C@@H](Cc1ccccc1)C(=O)O [N-formylmethionyl-leucylphenylalanine],nucOX,[1]; [14],−0.517
same,GE-HTS,[2]; [14],−0.370
same,MTT,[3]; [14],−1.240
same,ROS,[4]; [14],1.017
same,mitoOX,[5]; [14],−0.051
same,Viability,[6]; [14],0.354
same,ΔΨm,[7]; [14],0.476
same,cyt c,[8]; [14],0.374
CN(C)C(=S)SSC(=S)N(C)C [thiram],nucOX,[1]; [11],−2.770
same,GE-HTS,[2]; [11],−2.420
same,MTT,[3]; [11],−6.222
same,ROS,[4]; [11],−3.915
same,mitoOX,[5]; [11],−1.220
same,Viability,[6]; [11],−5.812
same,ΔΨm,[7]; [11],−4.011
same,cyt c,[8]; [11],−4.853
CC[C@H](CC[C@@H](C)[C@H]1CC[C@H]2[C@@H]3CC=C4C[C@@H](OC(C)=O)CC[C@]4(C)[C@H]3CC[C@]12C)C(C)C [sitosteryl acetate],nucOX,[1]; [13],−0.389
same,GE-HTS,[2]; [13],−0.233
same,MTT,[3]; [13],−0.775
same,ROS,[4]; [13],0.930
same,mitoOX,[5]; [13],0.180
same,Viability,[6]; [13],−0.827
same,ΔΨm,[7]; [13],−0.192
same,cyt c,[8]; [13],−0.443
COc1ccc2c(c1)CC[C@@H]1[C@@H]2CC[C@]2(C)[C@@H](O)CC[C@@H]12 [estradiol methyl ether],nucOX,[1]; [10],0.214
same,GE-HTS,[2]; [10],0.099
same,MTT,[3]; [10],−0.685
same,ROS,[4]; [10],0.411
same,mitoOX,[5]; [10],−0.209
same,Viability,[6]; [10],0.510
same,ΔΨm,[7]; [10],−0.007
same,cyt c,[8]; [10],1.670
C[C@@H]1C(=O)O[C@H]2C[C@@]34[C@H]5C[C@@H](C(C)(C)C)[C@]36[C@@H](OC(=O)[C@@H]6O)O[C@@]4(C(=O)O5)[C@]21O [ginkgolide A],nucOX,[1]; [13],−0.286
same,GE-HTS,[2]; [13],−0.247
same,MTT,[3]; [13],−1.019
same,ROS,[4]; [13],1.848
same,mitoOX,[5]; [13],−0.123
same,Viability,[6]; [13],0.380
same,ΔΨm,[7]; [13],−0.271
same,cyt c,[8]; [13],0.541
C[C@@H]1CC[C@@]2(OC1)O[C@H]1C[C@H]3[C@@H]4CC[C@H]5C[C@@H](O)CC[C@]5(C)C4=CC[C@]3(C)[C@H]1[C@@H]2C [hydroxy (3beta)isoallospirost-9 (11)-ene],nucOX,[1]; [13],−0.619
same,GE-HTS,[2]; [13],−0.457
same,MTT,[3]; [13],−1.944
same,ROS,[4]; [13],0.244
same,mitoOX,[5]; [13],−0.081
same,Viability,[6]; [13],0.035
same,ΔΨm,[7]; [13],−0.423
same,cyt c,[8]; [13],−0.048
